Values of other authors, collected in patent US20060183719A1 (priority 2005, published 2006).
Read-outs that look alike come from different tables or passages of the source.

| absorption (administered orally) | absorption (in vivo, po) | SMILES |
| --- | --- | --- |
| about 90% |  | C[C@H]1c2cccc(O)c2C(=O)C2=C(O)[C@]3(O)C(=O)C(C(N)=O)=C(O)[C@@H](N(C)C)[C@@H]3[C@@H](O)[C@@H]21 [doxycycline] |
|  | about 90% | CN(C)c1ccc(O)c2c1CC1CC3C(N(C)C)C(O)=C(C(N)=O)C(=O)C3(O)C(O)=C1C2=O (centres unmarked) [minocycline] |
